This note sets out measurements from patent US9172221B2, “Converter building” (ABB Technology AG, priority 2011, dated 2015).

Each structure is given as a SMILES string.

Data set [1] is described as follows: toxicity / lethal concentration LC50.
The conditions of data set [2]: in vivo.

Consider `FC(F)(F)COC(F)(F)F` [2,2,2-trifluoroethyl-trifluoromethyl ether], for which the “risk for human toxicity” value in data set [1] (concluded from available results of mammalian HFC (hydrofluorocarbon) tests) was “low risk for human toxicity”.
For the compound `O=C(C(F)(F)F)C(F)(C(F)(F)F)C(F)(F)F` [C5-ketone, 1,1,1,3,4,4,4-heptafluoro-3-(trifluoromethyl)butan-2-one], the “toxicity (in words)” value in data set [2] is recorded as “practically non-toxic”.
`O=C(C(F)(F)C(F)(F)F)C(F)(C(F)(F)F)C(F)(F)F` [C6-ketone, 1,1,1,2,4,4,5,5,5-Nonafluoro-2-(trifluoromethyl)pentan-3-one]: in data set [2], the “toxicity (in words)” value was “non-toxic”. In addition, the LC50 result in data set [1] (in vivo) is reported as “about 100,000 ppm”.
